Where two headings read alike, the source gives them in different places.
Columns and labels:
HEK293 = test: Cellular IC50 HEK293; type: cell-based; details: Homo sapiens
Text: (§1) XLfit (idbs) was used to determine the IC50-values in inhibition experiments. The following formula was chosen to fit the data points (Langmuir Binding Isotherm): fit=((A+(B*x))+4(C−B)*(1−exp((−1*D)*x)))/D)), res=(y−fit)

TNKS2 = TNKS2 (Homo sapiens (Human), UniProt Q9H2K2); test: Biochemical IC50 TNKS2
Text: as §1

[1] = HEK293, HEK293, read-out: Cellular IC50 HEK293
[2] = read-out: Biochemical IC50 TNKS2
[3] = HEK293, read-out: Cellular IC50 HEK293

TNKS2, sequence (Q9H2K2 whole entry): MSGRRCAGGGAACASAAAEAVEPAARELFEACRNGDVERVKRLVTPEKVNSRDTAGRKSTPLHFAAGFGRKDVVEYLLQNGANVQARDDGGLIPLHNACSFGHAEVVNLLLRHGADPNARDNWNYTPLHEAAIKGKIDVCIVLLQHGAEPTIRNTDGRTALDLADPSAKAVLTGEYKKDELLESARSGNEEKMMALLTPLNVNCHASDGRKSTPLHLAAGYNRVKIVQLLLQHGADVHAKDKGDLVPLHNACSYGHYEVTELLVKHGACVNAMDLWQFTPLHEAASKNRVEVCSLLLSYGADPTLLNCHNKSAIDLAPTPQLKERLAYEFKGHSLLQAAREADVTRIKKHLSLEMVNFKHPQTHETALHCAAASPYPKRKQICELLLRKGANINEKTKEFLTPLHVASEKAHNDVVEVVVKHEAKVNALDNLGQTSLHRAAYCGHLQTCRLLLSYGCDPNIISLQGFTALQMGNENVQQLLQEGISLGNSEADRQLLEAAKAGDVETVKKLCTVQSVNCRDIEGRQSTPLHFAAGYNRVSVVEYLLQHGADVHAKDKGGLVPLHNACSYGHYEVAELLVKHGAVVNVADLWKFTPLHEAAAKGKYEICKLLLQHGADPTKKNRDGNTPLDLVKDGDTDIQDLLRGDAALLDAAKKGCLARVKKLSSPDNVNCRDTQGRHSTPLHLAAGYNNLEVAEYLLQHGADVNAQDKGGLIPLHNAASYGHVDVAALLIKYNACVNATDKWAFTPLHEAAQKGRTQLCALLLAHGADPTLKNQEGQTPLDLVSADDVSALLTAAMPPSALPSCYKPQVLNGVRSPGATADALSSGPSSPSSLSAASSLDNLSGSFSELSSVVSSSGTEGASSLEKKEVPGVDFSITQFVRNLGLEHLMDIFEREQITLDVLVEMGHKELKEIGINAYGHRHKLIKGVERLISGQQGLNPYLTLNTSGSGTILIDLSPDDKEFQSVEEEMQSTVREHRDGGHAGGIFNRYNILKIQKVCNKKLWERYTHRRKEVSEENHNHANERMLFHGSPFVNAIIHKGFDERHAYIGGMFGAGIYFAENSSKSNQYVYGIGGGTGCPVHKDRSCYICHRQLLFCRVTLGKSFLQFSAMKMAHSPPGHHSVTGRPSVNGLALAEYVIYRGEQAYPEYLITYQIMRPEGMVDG

| SMILES | IC50 (HEK293; [1]) [µM] | IC50 (TNKS2; [2]) [µM] | IC50 (HEK293; [3]) [µM] | IC50 (TNKS2) [µM] |
| --- | --- | --- | --- | --- |
| CCOc1ccc(-c2nnc([C@H]3C[C@H](NC(=O)c4cccc(C(C)(C)O)n4)C3)n2-c2ccccc2F)nc1 [Example 129, N-((1S,3r)-3-(5-(5-ethoxypyridin-2-yl)-4-(2-fluorophenyl)-4H-1,2,4-triazol-3-yl)cyclobutyl)-6-(2-hydroxypropan-2-yl) picolinamide] | 0.649 | 0.21 | – | – |
| CCOc1ccc(C(=O)N[C@H]2C[C@H](c3nnc(-c4ccncn4)n3-c3ccccc3Cl)C2)nc1 [Example 130, N-((1R,3r)-3-(4-(2-chlorophenyl)-5-(pyrimidin-4-yl)-4H-1,2,4-triazol-3-yl)cyclobutyl)-5-ethoxypicolinamide] | 0.0014 | 0.0048 | – | – |
| COc1ccc(C(=O)N[C@H]2C[C@H](c3nnc(-c4ccncn4)n3-c3ccccc3Cl)C2)nc1 [Example 131, N-((1R,3r)-3-(4-(2-chlorophenyl)-5-(pyrimidin-4-yl)-4H-1,2,4-triazol-3-yl)cyclobutyl)-5-methoxypicolinamide] | 0.00066 | 0.0045 | – | – |
| N#Cc1cccc(C(=O)N[C@H]2C[C@H](c3nnc(-c4ccncn4)n3-c3ccccc3Cl)C2)c1 [Example 132, N-((1R,3r)-3-(4-(2-chlorophenyl)-5-(pyrimidin-4-yl)-4H-1,2,4-triazol-3-yl)cyclobutyl)-3-cyanobenzamide] | 0.039 | 0.0066 | – | – |
| CCOc1ccc(-c2nnc([C@H]3C[C@H](NC(=O)c4ccccn4)C3)n2-c2ccccc2Cl)nc1 [Example 134, N-((1S,3r)-3-(4-(2-chlorophenyl)-5-(5-ethoxypyridin-2-yl)-4H-1,2,4-triazol-3-yl)cyclobutyl)picolinamide] | 0.0045 | 0.0037 | – | – |
| CCOc1ccc(-c2nnc([C@H]3C[C@H](NC(=O)c4ccnc5cccnc45)C3)n2-c2ccccc2Cl)nc1 [Example 135, N-((1S,3r)-3-(4-(2-chlorophenyl)-5-(5-ethoxypyridin-2-yl)-4H-1,2,4-triazol-3-yl)cyclobutyl)-1,5-naphthyridine-4-carboxamide] | 0.00033 | 0.0019 | – | – |
| CCOc1ccc(-c2nnc([C@H]3C[C@H](NC(=O)c4ccccc4)C3)n2-c2ccccc2Cl)nc1 [Example 136, N-((1S,3r)-3-(4-(2-chlorophenyl)-5-(5-ethoxypyridin-2-yl)-4H-1,2,4-triazol-3-yl)cyclobutyl)benzamide] | 0.016 | 0.0066 | – | – |
| CCOc1ccc(-c2nnc([C@H]3C[C@H](NC(=O)c4ccc(F)cc4)C3)n2-c2ccccc2Cl)nc1 [Example 137, N-((1S,3r)-3-(4-(2-chlorophenyl)-5-(5-ethoxypyridin-2-yl)-4H-1,2,4-triazol-3-yl)cyclobutyl)-4-fluorobenzamide] | 0.01 | 0.0049 | – | – |
| CCOc1ccc(-c2nnc([C@H]3C[C@H](NC(=O)c4cccc5cccnc45)C3)n2-c2cccc(Cl)c2)nc1 [Example 139, N-((1r,3r)-3-(4-(3-chlorophenyl)-5-(5-ethoxypyridin-2-yl)-4H-1,2,4-triazol-3-yl)cyclobutyl)quinoline-8-carboxamide] | 0.004 | 0.0087 | – | – |
| CCOc1ccc(-c2nnc([C@H]3C[C@H](NC(=O)c4ccccn4)C3)n2-c2cccc(Cl)c2)nc1 [Example 140, N-((1r,3r)-3-(4-(3-chlorophenyl)-5-(5-ethoxypyridin-2-yl)-4H-1,2,4-triazol-3-yl)cyclobutyl)picolinamide] | – | 0.013 | 0.083 | – |
| [2H]C([2H])([2H])C([2H])([2H])Oc1ccc(-c2nnc([C@H]3C[C@H](NC(=O)c4cccc5cc(F)cnc45)C3)n2-c2ccccc2F)nc1 [Example 141, N-((1S,3r)-3-(5-(5-(ethoxy-d5)pyridin-2-yl)-4-(2-fluorophenyl)-4H-1,2,4-triazol-3-yl)cyclobutyl)-3-fluoroquinoline-8-carboxamide] | 0.0011 | – | – | 0.0029 |
| [2H]C([2H])([2H])C([2H])([2H])Oc1ccc(-c2nnc([C@H]3C[C@H](NC(=O)c4cnn5ccccc45)C3)n2-c2ccccc2F)nc1 [Example 142, N-((1S,3r)-3-(5-(5-(ethoxy-d5)pyridin-2-yl)-4-(2-fluorophenyl)-4H-1,2,4-triazol-3-yl)cyclobutyl)pyrazolo[1,5-a]pyridine-3-carboxamide] | 0.055 | – | – | 0.023 |
| CCOc1ccc(-c2nnc([C@H]3C[C@H](NC(=O)c4nc5ccccc5[nH]4)C3)n2-c2ccc(C)s2)nc1 [Example 143, N-((1r,3r)-3-(5-(5-ethoxypyridin-2-yl)-4-(5-methylthiophen-2-yl)-4H-1,2,4-triazol-3-yl)cyclobutyl)-1H-benzo[d]imidazole-2-carboxamide] | 0.094 | 0.011 | – | – |
| O=C(N[C@H]1C[C@H](c2nnc(-c3nccs3)n2-c2ccncc2)C1)c1cccc2cccnc12 [Example 146, N-((1r,3r)-3-(4-(pyridin-4-yl)-5-(thiazol-2-yl)-4H-1,2,4-triazol-3-yl)cyclobutyl)quinoline-8-carboxamide] | 0.08 | 0.016 | – | – |
| CCOc1ccc(-c2nnc([C@H]3C[C@H](NC(=O)c4ccc5cccnc5n4)C3)n2-c2ccccc2F)nc1 [Example 147, N-((1S,3r)-3-(5-(5-ethoxypyridin-2-yl)-4-(2-fluorophenyl)-4H-1,2,4-triazol-3-yl)cyclobutyl)-1,8-naphthyridine-2-carboxamide] | 0.078 | 0.019 | – | – |
| CCOc1ccc(-c2nnc([C@H]3C[C@H](NC(=O)c4cc5ncccc5[nH]4)C3)n2-c2ccccc2F)nc1 [Example 148, N-((1S,3r)-3-(5-(5-ethoxypyridin-2-yl)-4-(2-fluorophenyl)-4H-1,2,4-triazol-3-yl)cyclobutyl)-1H-pyrrolo[3,2-b]pyridine-2-carboxamide] | 0.008 | 0.005 | – | – |
| CCOc1ccc(-c2nnc([C@H]3C[C@H](NC(=O)c4cc5sccc5[nH]4)C3)n2-c2ccccc2F)nc1 [Example 149, N-((1S,3r)-3-(5-(5-ethoxypyridin-2-yl)-4-(2-fluorophenyl)-4H-1,2,4-triazol-3-yl)cyclobutyl)-4H-thieno[3,2-b]pyrrole-5-carboxamide] | 0.027 | 0.0074 | – | – |
| CCOc1ccc(-c2nnc([C@H]3C[C@H](NC(=O)c4cc5sc(C)cc5[nH]4)C3)n2-c2ccccc2F)nc1 [Example 150, N-((1S,3r)-3-(5-(5-ethoxypyridin-2-yl)-4-(2-fluorophenyl)-4H-1,2,4-triazol-3-yl)cyclobutyl)-2-methyl-4H-thieno[3,2-b]pyrrole-5-carboxamide] | 0.016 | 0.0095 | – | – |
| CCOc1ccc(-c2nnc([C@H]3C[C@H](NC(=O)c4cc5occc5[nH]4)C3)n2-c2ccccc2F)nc1 [Example 151, N-((1S,3r)-3-(5-(5-ethoxypyridin-2-yl)-4-(2-fluorophenyl)-4H-1,2,4-triazol-3-yl)cyclobutyl)-4H-furo[3,2-13]pyrrole-5-carboxamide] | 0.035 | 0.014 | – | – |
| CCOc1ccc(-c2nnc([C@H]3C[C@H](NC(=O)c4cc5cccnc5[nH]4)C3)n2-c2ccccc2F)nc1 [Example 152, N-((1S,3r)-3-(5-(5-ethoxypyridin-2-yl)-4-(2-fluorophenyl)-4H-1,2,4-triazol-3-yl)cyclobutyl)-1H-pyrrolo[2,3-b]pyridine-2-carboxamide] | 0.144 | 0.019 | – | – |
| CCOc1ccc(-c2nnc([C@H]3C[C@H](NC(=O)c4nn(C)c5ccccc45)C3)n2-c2ccccc2F)nc1 [Example 153, N-((1S,3r)-3-(5-(5-ethoxypyridin-2-yl)-4-(2-fluorophenyl)-4H-1,2,4-triazol-3-yl)cyclobutyl)-1-methyl-1H-indazole-3-carboxamide] | 0.056 | 0.013 | – | – |
| CCOc1ccc(-c2nnc([C@H]3C[C@H](NC(=O)c4ccc5cc(F)ccc5n4)C3)n2-c2ccccc2F)nc1 [Example 155, N-((1S,3r)-3-(5-(5-ethoxypyridin-2-yl)-4-(2-fluorophenyl)-4H-1,2,4-triazol-3-yl)cyclobutyl)-6-fluoroquinoline-2-carboxamide] | 0.012 | 0.0091 | – | – |
| CCOc1ccc(-c2nnc([C@H]3C[C@H](NC(=O)c4cccc5cn[nH]c45)C3)n2-c2ccccc2F)nc1 [Example 156, N-((1S,3r)-3-(5-(5-ethoxypyridin-2-yl)-4-(2-fluorophenyl)-4H-1,2,4-triazol-3-yl)cyclobutyl)-1H-indazole-7-carboxamide] | 0.067 | 0.021 | – | – |
| CCOc1ccc(-c2nnc([C@H]3C[C@H](NC(=O)c4cc5cnccc5[nH]4)C3)n2-c2ccccc2F)nc1 [Example 157, N-((1S,3r)-3-(5-(5-ethoxypyridin-2-yl)-4-(2-fluorophenyl)-4H-1,2,4-triazol-3-yl)cyclobutyl)-1H-pyrrolo[3,2-c]pyridine-2-carboxamide] | 0.034 | 0.0044 | – | – |
| CCOc1ccc(-c2nnc([C@H]3C[C@H](NC(=O)c4cc(C)nc5ncnn45)C3)n2-c2ccccc2F)nc1 [Example 158, N-((1S,3r)-3-(5-(5-ethoxypyridin-2-yl)-4-(2-fluorophenyl)-4H-1,2,4-triazol-3-yl)cyclobutyl)-5-methy-[1,2,4]triazolo[1,5-a]pyrimidine-7-carboxamide] | 0.044 | 0.026 | – | – |
| CCOc1ccc(-c2nnc([C@H]3C[C@H](NC(=O)c4ccnc5cc(F)cnc45)C3)n2-c2ccccn2)nc1 [Example 160, N-((1r,3r)-3-(5-(5-ethoxypyridin-2-yl)-4-(pyridin-2-yl)-4H-1,2,4-triazol-3-yl)cyclobutyl)-7-fluoro-1,5-naphthyridine-4-carboxamide] | – | 0.022 | 0.009 | – |
| CCOc1ccc(-c2nnc([C@H]3C[C@H](NC(=O)c4ccnc5cccnc45)C3)n2-c2cccnc2)nc1 [Example 162, N-((1r,3r)-3-(5-(5-ethoxypyridin-2-yl)-4-(pyridin-3-yl)-4H-1,2,4-triazol-3-yl)cyclobutyl)-1,5-naphthyridine-4-carboxamide] | – | 0.0045 | 0.016 | – |

— patent US11926614B2, “1,2,4-triazole derivatives as tankyrase inhibitors” (priority 2018, dated 2024)
